From US8569481B2, “Capture compounds, collections thereof and methods for analyzing the proteome and complex compositions” (Pharmaceuticals, Inc., priority 2001, dated 2013)

Target: Cytochrome C (Bos taurus, UniProt P62894)
Assay: Time course reaction of cytochrome C with a non-specific capture compound, analyzed by MALDI-TOF mass spectrometry
Assay type: binding
From the text: Four different capture compounds (designated HKC 1341 (2,5-dioxopyrrolidin-1-yl acetate), HKC 1343 (2,5-dioxopyrrolidin-1-yl 4-(hydroxybis(4-methoxyphenyl)methyl)benzoate), HKC 1349 (1-(4-((3-(2-hydroxyethoxy)phenyl)(phenyl)(3-phenylpropoxy)methyl)benzoyl)-1H-pyrrole-2,5-dione), and HKC 1365 (3-((4-((2,5-dioxopyrrolidin-1-yloxy)carbonyl)phenyl)diphenylmethoxy)propane-1,2-diyl dipalmitate)) were reacted individually with Cytochrome C (accession number: P00006, FIG. 20c). The capture experiments were analyzed using MALDI-TOF Mass Spectrometry. Binding was performed in 20 μL sample volumes with 5 μM Cytochrome C concentrations in 25 mM HEPES buffer solution, pH 7.0. The trityl-based capture compounds were added to the protein solution at a 10 μM concentration. […] The reaction was quenched using 1 μL of a 100 mM TRIZMA base solution. The capture compound-protein binding mixture was prepared for mass spectrometry analysis by mixing a 1 μL aliquot of the binding reaction with 1 μL of a 10 mg/mL sinapinic acid in 30% aqueous acetonitrile. The sample was deposited as a […] spot on the surface of mass target plates and subsequently air-dried before mass spectrometric analyses.

Cytochrome C, sequence (P62894 whole entry): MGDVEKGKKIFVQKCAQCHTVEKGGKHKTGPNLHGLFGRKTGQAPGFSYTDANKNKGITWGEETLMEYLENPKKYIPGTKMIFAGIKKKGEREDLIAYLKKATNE

- modifications of cytochrome C resulting from binding of the capture compound (after 30 minutes (middle spectrum, FIG. 20f)): 1-9
- modifications of cytochrome C resulting from binding of the capture compound (time 0 (top spectrum, FIG. 20f)): no modification
SMILES: CC(=O)ON1C(=O)CCC1=O [HKC 1341, 2,5-dioxopyrrolidin-1-yl acetate]
